Target: T1, Mitogen-activated protein kinase kinase kinase 5 (Homo sapiens, UniProt Q99683)
T1 sequence (Q99683 whole entry): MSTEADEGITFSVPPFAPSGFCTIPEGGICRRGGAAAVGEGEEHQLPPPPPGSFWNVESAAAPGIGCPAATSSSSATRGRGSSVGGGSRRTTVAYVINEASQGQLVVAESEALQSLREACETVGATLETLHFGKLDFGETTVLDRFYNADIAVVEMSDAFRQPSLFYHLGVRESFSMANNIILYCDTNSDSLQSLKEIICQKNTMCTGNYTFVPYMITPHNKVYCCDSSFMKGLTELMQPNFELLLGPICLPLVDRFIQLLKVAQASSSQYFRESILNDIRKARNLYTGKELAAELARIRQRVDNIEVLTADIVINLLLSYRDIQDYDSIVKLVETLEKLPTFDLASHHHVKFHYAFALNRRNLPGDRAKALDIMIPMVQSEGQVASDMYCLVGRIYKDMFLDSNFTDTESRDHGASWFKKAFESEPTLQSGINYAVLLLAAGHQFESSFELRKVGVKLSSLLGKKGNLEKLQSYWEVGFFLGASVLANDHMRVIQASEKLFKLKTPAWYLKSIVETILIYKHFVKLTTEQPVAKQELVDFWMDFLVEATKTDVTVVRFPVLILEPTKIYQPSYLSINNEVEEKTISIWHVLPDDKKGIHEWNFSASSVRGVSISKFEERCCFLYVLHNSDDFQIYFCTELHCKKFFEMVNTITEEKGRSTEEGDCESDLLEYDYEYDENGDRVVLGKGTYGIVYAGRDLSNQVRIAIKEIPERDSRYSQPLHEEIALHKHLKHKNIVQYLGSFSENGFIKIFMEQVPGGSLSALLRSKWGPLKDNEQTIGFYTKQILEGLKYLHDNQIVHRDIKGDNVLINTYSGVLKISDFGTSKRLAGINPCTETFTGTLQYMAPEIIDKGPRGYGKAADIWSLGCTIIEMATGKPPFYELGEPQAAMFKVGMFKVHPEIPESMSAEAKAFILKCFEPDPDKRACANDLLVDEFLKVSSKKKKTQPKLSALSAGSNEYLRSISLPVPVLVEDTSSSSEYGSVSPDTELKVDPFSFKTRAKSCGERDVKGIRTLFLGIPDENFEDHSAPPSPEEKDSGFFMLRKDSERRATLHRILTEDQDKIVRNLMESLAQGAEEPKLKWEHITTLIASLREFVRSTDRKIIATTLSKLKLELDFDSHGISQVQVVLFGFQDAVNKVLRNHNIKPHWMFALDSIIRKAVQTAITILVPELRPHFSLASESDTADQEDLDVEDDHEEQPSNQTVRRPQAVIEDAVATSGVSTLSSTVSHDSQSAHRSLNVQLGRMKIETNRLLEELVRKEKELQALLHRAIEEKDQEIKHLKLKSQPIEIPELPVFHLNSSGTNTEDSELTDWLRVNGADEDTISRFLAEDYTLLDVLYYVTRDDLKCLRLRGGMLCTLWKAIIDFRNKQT
Test: HTRF KinEASE Assay : HTRF KinEASE-STK is a generic method for measuring serine/threonine kinase activities using a time-resolved fluorescence resonance energy transfer (TR-FRET) immunoassay. The IC50 value for each compound was determined in the presence of compound (various concentration from 0 to 10 μM) and a fixed amount of ATP and peptide substrates. The test compound, 1 Um STK3 peptide substrate, and 5 Nm of ASK1 kinase are incubated with kinase reaction buffer containing 50 Mm HEPES Ph 7.5, 0.01% BRIJ-35, 10 Mm MgCl2, and 1 Mm EGTA for 30 minutes. 100 Um ATP is added to start kinase reaction and incubated for 3 hours. The STK3-antibody labeled with Eu3+-Cryptate and 125 Nm streptavidin-XL665 are mixed in a single addition with stop reagents provided by the Cisbio kit used to stop the kinase reaction. Fluorescence is detected using an Envision Multilabeled 2014 reader from PerkinElmer. The Fluorescence is measured at 615 nm (Cryptate) and 665 nm (XL665) and a ratio of 665 nm/615 nm is calculated for each well.

## CCOC(=O)N1Cc2cnc(C(=O)Nc3cccc(-c4nncn4C(C)C)n3)cc2C1
  IC50: 10 to 100 nM
